Consider 23 compounds from patent US20230278958A1 (Merck Patent GmbH, priority 2020, published 2023).

The subject of assay [1] is YAP-TEAD interaction. The assay can be described thus: SK-HEP-1 reporter assay (8x TEAD responsive elements driving NanoLuc luciferase). In kind it is cell-based. Particulars: Homo sapiens, SK-HEP1; SK-HEP-1 TEAD-NanoLuc reporter cells, 24 hour incubation, luciferase readout. The method, then:
To identify inhibitors of YAP-TEAD interaction, 8× TEAD responsive elements driving the NanoLuc® luciferase gene were stably integrated into SK-HEP-1 cells (ECACC #: 91091816).
For the assay, cells were treated in duplicates with the test compounds in a 10-point dose, with the top concentration starting at 30 μM (final concentration in assay). After a 24 hour incubation at 37° C., 95% rH, and 5% CO2, a luciferase substrate/lysis reagent mix (NanoGlo™, Promega) was added to the cells, allowing the quantification of cellular luciferase activity.
Cell Media: The cells were cultured in the following media: MEM, +10% FBS, +1× GlutaMAX, +1 mM Sodium-Pyruvate, +100 μM Non-essential amino acids, +0.1 mg/ml Hygromycin. The media used for the assay was: MEM (w/o Phenol Red), +10% FBS, +1× GlutaMAX, +1 mM Sodium-Pyruvate, +100 μM Non-essential amino acids, +0.5% Pen/Strep
(§1) Reagents: The reagents used are listed below:
Cell culture: The cells were examined using an inverted microscope to check for health and cell density. To dissociate adherent cells, the monolayer of cells was washed once with pre-warmed PBS. After removing the PBS, 3 ml pre-warmed Accutase® was added to a F75 flask, dispersed evenly and the flask was allowed to sit in incubator for ˜4-5 minutes.
(§2) When a single cell suspension was obtained, 7 ml of prewarmed growth media was added and resuspended with the cells. The cell suspension was transferred to a sterile 15 ml conical centrifuge tube, and spun for 5 min at 300×g, RT. The supernatant was discarded and the pellet was resuspended in 10 ml of pre-warmed growth media.
(§3) The total cell count was determined, and 20 μl of the desired cell number was added to each well of a 384 well plate using a Multidrop Combi. The plates were then incubated for 24 hours at 37° C., 95% rH, and 5% CO2.
(§4) Compound treatment: 24 hours after seeding, the cells were treated with compounds.
(§5) A 1:333 dilution of compounds, diluted in DMSO, was made to get a final concentration of 0.3% DMSO per well. To transfer the compounds to the assay plate, 120 nl was shot from Labcyte low dead volume plates to the cell plates containing 20 μl media/well with the ECHO 555 liquid handling system.
(§6) After treatment, the cells were fed with 20 μl fresh pre-warmed assay media using a Multidrop combi.
The assay plates were then incubated for another 24 h at 37° C., 95% rH, and 5% CO2.
Luciferase readout: 24 h after treatment, the plates were taken out of the incubator and were allowed to equilibrate to RT. 30 μl of NanoGlo® reagent was added to the plates in the dark. Plates were shaken for 20 min on a Teleshake (˜1500 rpm) in the dark. The luminescence was then measured using an EnVision microplate reader. The IC50 values were generated using Genedata Screener®.
Experimental data in SK-HEP-1 reporter assay of the compounds shown in Table 1 are shown in Table 2 below and classified in the following groups: […]
On the technique in general: A reporter such as luciferase makes a cellular process visible.

For assay [2], the system named is NCI-H226 cells. Nature of the assay: Viability assay in NCI-H226 (Yap-dependent) cells, CyQUANT. Format: cell-based. Particulars: Homo sapiens, 96 hour incubation. On the procedure: The ability of YAP-TEAD inhibitors to inhibit tumor cell growth was evaluated using two different cell lines: NCI-H226, which is a YAP dependent cell line, and SW620 cells, where YAP and TAZ were knocked out using CRISPR to generate a YAP independent cell line.
For the assay, cells were treated in duplicates with the test compounds in a 10-point dose, 1:3 dilution steps, with the top concentration starting at 30 μM (final concentration in assay). After a 96 hour incubation at 37° C., 95% rH, and 5% CO2, a cell-permeant DNA-binding dye that stains only healthy cells (CyQUANT®, Promega) was added to the cells, allowing the quantification of cell viability.
Cell Media: The NCI-H226 cells were cultured in the following media: RPMI 1640, +10% FBS, +1× GlutaMAX, +10 mM HEPES, +0.5% Pen/Strep. The SW620-KO cells were cultured in the following media: DMEM/F-12, +10% FBS, +1× GlutaMAX, +10 mM HEPES, +0.5% Pen/Strep.
as §1
Cell culture: The cells were examined using an inverted microscope to check for health, cell density, etc. To dissociate adherent cells, the monolayer of cells was washed once with pre-warmed PBS. After removing the PBS, 3 ml pre-warmed Accutase was added to a F75 flask, dispersed evenly and the flask was allowed to sit in incubator for ˜4-5 minutes.
as §2, §3, §4, §5, §6
The assay plates were then incubated for 96 h at 37° C., 95% rH, and 5% CO2.
96h after treatment 30 μl of CyQuant® reagent was added to the assay plates using a Multidrop combi in the dark. The plates were then incubated for 1 hour at 37° C., 95% rH and 5% CO2. Thereafter, the assay plates were removed from the incubator and allowed to equilibrate to RT for 30 min in the dark without lid. Finally, they were measured using an EnVision microplate reader with a FITC bottom read program.
Experimental data in the Viability assay of the compounds shown in Table 1 are shown in Table 3 below and classified in the following groups: […]

For orientation: IC50 means the midpoint of a concentration-inhibition curve. Consider `Cc1ccc2c(c1)c1cc(C(=O)NC[C@@H](O)CO)ccc1n2-c1ccc(C(F)(F)F)cc1` (single isomer, unassigned) [Compound 68, N-[(2R or 2S)-2,3-dihydroxypropyl]-6-methyl-9-[4-(trifluoromethyl)phenyl]-9H-carbazole-3-carboxamide], for which the IC50 in assay [1] was in the range of 10 to 100 nM.
As for `Cc1ccc2c(c1)c1cc(C(=O)NC[C@H](O)CO)ccc1n2-c1ccc(C(F)(F)F)cc1` (single isomer, unassigned) [Compound 69, N-[(2S or 2R)-2,3-dihydroxypropyl]-6-methyl-9-[4-(trifluoromethyl)phenyl]-9H-carbazole-3-carboxamide], the IC50 in assay [1] lay within 100 to 1000 nM.
Consider `O=C(O)c1ccc2c(c1)c1cc(Cc3cccc(F)c3)ccc1n2-c1ccc(C(F)(F)F)cc1` [Compound 2, 6-[(3-fluorophenyl)methyl]-9-[4-(trifluoromethyl)phenyl]-9H-carbazole-3-carboxylic acid], for which the IC50 in assay [1] lay within 100 to 1000 nM; in assay [2], 0.1 to 1 µM.
For `O=C(O)c1ccc2c(c1)c1cc(Cc3ccccc3F)ccc1n2-c1ccc(C(F)(F)F)cc1` [Compound 3, 6-[(2-fluorophenyl)methyl]-9-[4-(trifluoromethyl)phenyl]-9H-carbazole-3-carboxylic acid], the values for the IC50 in assay [1] and in assay [2] were 100 to 1000 nM and 1 to 10 µM, respectively.
On to `O=C(O)c1ccc2c(c1)c1cc(Cc3ccc(F)cc3)ccc1n2-c1ccc(C(F)(F)F)cc1` [Compound 4, 6-[(4-fluorophenyl)methyl]-9-[4-(trifluoromethyl)phenyl]-9H-carbazole-3-carboxylic acid], for which the IC50 was 100 to 1000 nM in assay [1] and greater than 10 µM in assay [2].
In the case of `O=C(O)c1ccc2c(c1)c1ccncc1n2-c1ccc(C(F)(F)F)cc1` [Compound 5, 9-[4-(trifluoromethyl)phenyl]-9H-pyrido[3,4-b]indole-6-carboxylic acid], the IC50 in assay [1] lay in the range of 100 to 1000 nM; in assay [2], 0.1 to 1 µM.
Consider `O=C(O)c1ccc2c(c1)c1cnccc1n2-c1ccc(C(F)(F)F)cc1` [Compound 7, 5-[4-(trifluoromethyl)phenyl]-5H-pyrido[4,3-b]indole-8-carboxylic acid], for which the IC50 in assay [1] was greater than 1000 nM; in assay [2], greater than 10 µM.
Take `N#Cc1ccc2c(c1)c1cc(C(=O)O)ccc1n2-c1ccc(C(F)(F)F)cc1` [Compound 12, 6-cyano-9-[4-(trifluoromethyl)phenyl]-9H-carbazole-3-carboxylic acid]: the IC50 in assay [1] is 10 to 100 nM; in assay [2], 1 to 10 µM.
The like results for `O=C(O)c1ccc2c(c1)c1cc(OC(F)(F)F)ccc1n2-c1ccc(C(F)(F)F)cc1` [Compound 15, 6-(trifluoromethoxy)-9-[4-(trifluoromethyl)phenyl]-9H-carbazole-3-carboxylic acid] were, in that order, 10 to 100 nM and 0.001 to 0.1 µM.
`O=C(O)c1cc2c3ccccc3n(Cc3ccc(C(F)(F)F)cc3)c2cn1` [Compound 32, 9-{[4-(trifluoromethyl)phenyl]methyl}-9H-pyrido[3,4-b]indole-3-carboxylic acid] registered an IC50 in assay [1] greater than 1000 nM.
With `O=C(NC1CC1)c1cc2c3cccnc3n(-c3ccc(C(F)(F)F)cc3)c2cn1` [Compound 36, N-cyclopropyl-8-[4-(trifluoromethyl)phenyl]-5,8,10-triazatricyclo[7.4.0.0^2,^7]trideca-1(9),2(7),3,5,10,12-hexaene-4-carboxamide], the half-maximal inhibitory concentration (IC50) in assay [1] is 100 to 1000 nM; in assay [2], 0.1 to 1 µM.
On to `Cc1ccc2c(c1)c1cc(C(=O)NCC(O)C(F)(F)F)ccc1n2-c1ccc(C(F)(F)F)cc1` (stereo not shown) [Compound 60, 6-methyl-N-(3,3,3-trifluoro-2-hydroxypropyl)-9-[4-(trifluoromethyl)phenyl]-9H-carbazole-3-carboxamide], for which the half-inhibitory concentration (IC50) in assay [1] was in the range of 100 to 1000 nM.
Regarding `Cc1ccc2c(c1)c1cc(C(=O)NCc3ccccn3)ccc1n2-c1ccc(OC(F)(F)F)cc1` [Compound 64, 6-methyl-N-[(pyridin-2-yl)methyl]-9-[4-(trifluoromethoxy)phenyl]-9H-carbazole-3-carboxamide], in assay [1], the half-maximal inhibitory concentration (IC50) was greater than 1000 nM.
On the same count and under the same terms, next, `Cc1ccc2c(c1)c1cc(C(=O)NCc3ncccn3)ccc1n2-c1ccc(OC(F)(F)F)cc1` [Compound 65, 6-methyl-N-[(pyrimidin-2-yl)methyl]-9-[4-(trifluoromethoxy)phenyl]-9H-carbazole-3-carboxamide]: greater than 1000 nM; `Cc1ccc2c(c1)c1cc(C(=O)NCc3cnccn3)ccc1n2-c1ccc(OC(F)(F)F)cc1` [Compound 66, 6-methyl-N-[(pyrazin-2-yl)methyl]-9-[4-(trifluoromethoxy)phenyl]-9H-carbazole-3-carboxamide]: greater than 1000 nM.
In the case of `Cc1ccc2c(n1)c1cc(C(N)=O)ccc1n2-c1ccc(C(F)(F)F)cc1` [Compound 67, 2-methyl-5-[4-(trifluoromethyl)phenyl]-5H-pyrido[3,2-b]indole-8-carboxamide], the half-inhibitory concentration (IC50) in assay [1] fell in the range of 10 to 100 nM.
On the same count and under the same terms, next, `Cc1cc2c3cc(C(=O)NC4CC4)ccc3n(-c3ccc(C(F)(F)F)cc3)c2cc1C` [Compound 70, N-cyclopropyl-6,7-dimethyl-9-[4-(trifluoromethyl)phenyl]-9H-carbazole-3-carboxamide]: 10 to 100 nM.
On the same count and under the same terms, next, `Cc1ccc2c(c1)c1cc(C(=O)N[C@H](C)CO)ccc1n2-c1ccc(C(F)(F)F)cc1` [Compound 71, N-[(2R)-1-hydroxypropan-2-yl]-6-methyl-9-[4-(trifluoromethyl)phenyl]-9H-carbazole-3-carboxamide]: 100 to 1000 nM; `Cc1ccc2c(c1)c1cc(C(=O)N[C@@H](C)CO)ccc1n2-c1ccc(C(F)(F)F)cc1` [Compound 72, N-[(2S)-1-hydroxypropan-2-yl]-6-methyl-9-[4-(trifluoromethyl)phenyl]-9H-carbazole-3-carboxamide]: 100 to 1000 nM; `Cc1ccc2c(c1)c1cc(C(=O)NCc3ccncn3)ccc1n2-c1ccc(OC(F)(F)F)cc1` [Compound 73, 6-methyl-N-[(pyrimidin-4-yl)methyl]-9-[4-(trifluoromethoxy)phenyl]-9H-carbazole-3-carboxamide]: greater than 1000 nM.
Turning to `CNC(=O)c1ccc2c(c1)c1cc(C)c(C)cc1n2-c1ccc(C(F)(F)F)cc1` [Compound 74, N,6,7-trimethyl-9-[4-(trifluoromethyl)phenyl]-9H-carbazole-3-carboxamide], in assay [1], the 50% inhibitory concentration (IC50) lay within 1 to 10 nM.
For `Cc1cc2c3cc(C(=O)NCCO)ccc3n(-c3ccc(C(F)(F)F)cc3)c2cc1C` [Compound 75, N-(2-hydroxyethyl)-6,7-dimethyl-9-[4-(trifluoromethyl)phenyl]-9H-carbazole-3-carboxamide], in assay [1], the IC50 fell in the range of 10 to 100 nM.
The same measure, in the same setting: then `Cc1cc2c3cc(C(N)=O)ccc3n(-c3ccc(C(F)(F)F)cc3)c2cc1C` [Compound 76, 6,7-dimethyl-9-[4-(trifluoromethyl)phenyl]-9H-carbazole-3-carboxamide], with 10 to 100 nM.
